Patent publication US20260324646A1, “BIOLOGICAL COMPOSITION FOR USE AGAINST PLANT FUNGICIDAL INFECTIONS” (UNIVERSITA' DEGLI STUDI DI MILANO, priority 2023, published 2026)

Assays:
[1] = system: Alternaria sp. and B. caroliniana; test: In vitro growth inhibition of phytopathogenic fungi on PDA (radial growth rate, 12-day effect); format: cell-based, Alternaria sp.; Botrytis caroliniana; conditions: for radial growth rate (Kr): PDA, 27±1° C.
Protocol: The phytopathogenic fungus Alternaria sp. was isolated in December 2021 from a vineyard in Oltrepo pavese (Santa Maria della Versa, Pavia, Italy).
In addition to Alternaria sp., experiments were also carried out on the fungus Botrytis caroliniana.
(§1) The fungal strains were maintained on potato dextrose agar (PDA, Merck kGaA, Darmstadt, Germany) at 4±1° C. and regularly subcultured. Plants of Solanum lycopersicum (cultivar Rio Grande) were sprouted in the greenhouse of the Fondazione dell'Università di Milano Filarete (Milan, Italy) under controlled conditions (T=18/25±1° C. (night/day), humidity ≥90%, photoperiod 16 h light:8 h dark). Determination of in vitro growth inhibition caused by mixtures of CA, BA, CaCl2 and the compositions of the invention was performed by measuring the diameter and calculating the radial growth rate (Kr, mm/h). The diameter growth of the fungi was determined daily, in six repetitions, using the Image J program (Copyright© 1993, 2018, Oracle).
The fungal cultures were carried out in Petri dishes (6 Well Cell Culture Plates, Sigma-Aldrich). The media treated with the compositions of the invention were inoculated with mycelial caps (diameter 7 mm) of growing active fungal strains (e.g., Alternaria sp. and B. caroliniana). The control cultures are carried out on PDA support and compared with those conducted on CA, BA, CaCl2 and on compositions according to the invention. The media was sterilized at 121° C. for 20 min. Incubation was carried out at 27±1° C. for 12 days in a static incubator (Memmert GmbH+Co. KG, Schwabach, Germany).
The results are shown in FIG. 1 (a) PDA control; b) PDA substrate containing citric acid).

S. lycopersicum plants = test: Phytotoxicity to treated plants in the in vivo experiments; set-up: species or system Solanum lycopersicum (cultivar Rio Grande); conditions: BA 3X (4.8 mM), sprayed 24 hours after infection
Protocol: as §1
S. lycopersicum plants were infected by […] the spores of the pathogenic fungus Alternaria sp. on the attached leaves and stem. Alternaria sp. spores were obtained by dropping 20 mL of sterile H2O into a culture of the fungus in a Petri dish. The inoculum was calculated after enumerating the spores under light microscope using a counting chamber device and the concentration was 3.1×10^6 spores/mL. 24 hours after infection, the attached leaves were sprayed with the compositions of the invention. The plants were infected and untreated, or treated with CA mixtures or with the compositions of the invention 24 hours after infection with Alternaria sp. […]

## OB(O)O [BA, Boric acid]
[1]; BA 1X (1.6 mM)
  radial growth rate (Kr): 0.115 mm/h
[1]; BA 3X (4.8 mM)
  radial growth rate (Kr): 0.051 mm/h
[1]; BA 5X (8.0 mM)
  Effect (12 days from cultivation): −
  radial growth rate (Kr): 0.003 mm/h
S. lycopersicum plants
  Effect (8 days after infection): toxicity for the plant: Toxic for the plant

## O=C(O)CC(O)(CC(=O)O)C(=O)O [CA, Citric acid]
[1]; CA 1X (0.01M)
  radial growth rate (Kr): 0.099 mm/h
[1]; CA 2X (0.02M)
  radial growth rate (Kr): 0.028 mm/h
[1]; CA 3X (0.03M)
  radial growth rate (Kr): 0.034 mm/h
[1]; CA 5X (0.05M)
  radial growth rate (Kr): 0.012 mm/h
[1]; CA 7X (0.07M)
  radial growth rate (Kr): 0.020 mm/h
[1]; CA 10X (0.1M)
  Effect (12 days from cultivation): −
  radial growth rate (Kr): 0.000 mm/h
[1]; CA 105X (1M)
  Effect (12 days from cultivation): −
  radial growth rate (Kr): 0.000 mm/h

## [Ca+2].[Cl-].[Cl-] [CaCl2, Calcium chloride]
[1]; CaCl2 1X (0.45 mM)
  Effect (12 days from cultivation): +++++
  radial growth rate (Kr): 0.214 mm/h
[1]; CaCl2 2X (0.90 mM)
  Effect (12 days from cultivation): +++++
  radial growth rate (Kr): 0.221 mm/h
[1]; CaCl2 3X (1.4 mM)
  radial growth rate (Kr): 0.077 mm/h
